Laboratory results: patent US7524869B2, “Taxanes having a C10 ester substituent” (Florida State University Research Foundation, Inc., priority 2000, dated 2009)
pIC50: −log10 of the molar value. Where two headings read alike, the source gives them in different places.

Experiments:
HCT116 = experiment: In vitro cytotoxicity measured by the cell colony formation assay; format: cell-based; conditions: read-out: IN VITRO ID 50 (nm) HCT116
[1] = HCT116 cells, 72 h drug incubation, colonies counted after 7 days, ID50 = drug concentration producing 50% inhibition of colony formation

| Structure (SMILES) | pIC50 (HCT116; Homo sapiens, HCT-116) | melting point | pIC50 (HCT116; [1]) |
| --- | --- | --- | --- |
| CCC(=O)O[C@H]1C(=O)[C@@]2(C)C([C@H](OC(=O)c3ccccc3)[C@]3(O)C[C@H](OC(=O)[C@H](O)[C@@H](NC(=O)c4ccccc4)c4cccs4)C(C)=C1C3(C)C)[C@]1(OC(C)=O)CO[C@@H]1C[C@@H]2O (stereo partly shown) [Compound 0687, 3′-Desphenyl-3′-(2-thienyl)-10-propionyl-10-deacetyl taxol] | > 9.00 | 154 to 155 °C |  |
| CCC(=O)O[C@H]1C(=O)[C@@]2(C)C([C@H](OC(=O)c3ccccc3)[C@]3(O)C[C@H](OC(=O)[C@H](O)[C@H](C=C(C)C)NC(=O)OCC(C)C)C(C)=C1C3(C)C)[C@]1(OC(C)=O)CO[C@@H]1C[C@@H]2O (stereo partly shown) [Compound 5065] |  |  | > 8.00 |
| CCCC(=O)O[C@H]1C(=O)[C@@]2(C)C([C@H](OC(=O)c3ccccc3)[C@]3(O)C[C@H](OC(=O)[C@H](O)[C@H](C=C(C)C)NC(=O)OCC(C)C)C(C)=C1C3(C)C)[C@]1(OC(C)=O)CO[C@@H]1C[C@@H]2O (stereo partly shown) [Compound 5144] |  |  | > 8.00 |
| CC(=O)O[C@@]12CO[C@@H]1C[C@H](O)[C@@]1(C)C(=O)[C@H](OC(=O)C3CC3)C3=C(C)[C@@H](OC(=O)[C@H](O)[C@@H](NC(=O)OCC(C)C)C4CC4)C[C@@](O)([C@@H](OC(=O)c4ccccc4)C12)C3(C)C (stereo partly shown) [Compound 5232] |  |  | > 8.00 |
| CCC(=O)O[C@H]1C(=O)[C@@]2(C)C([C@H](OC(=O)c3ccccc3)[C@]3(O)C[C@H](OC(=O)[C@H](O)[C@@H](NC(=O)OC(C)(C)C)c4ccoc4)C(C)=C1C3(C)C)[C@]1(OC(C)=O)CO[C@@H]1C[C@@H]2O (stereo partly shown) [Compound 5495] |  |  | > 9.00 |
| CCC(=O)O[C@H]1C(=O)[C@@]2(C)C([C@H](OC(=O)c3ccccc3)[C@]3(O)C[C@H](OC(=O)[C@H](O)[C@@H](NC(=O)OC(C)(C)CC)c4ccco4)C(C)=C1C3(C)C)[C@]1(OC(C)=O)CO[C@@H]1C[C@@H]2O (stereo partly shown) [Compound 6522] |  |  | > 9.00 |
